In patent US11261192B2, “Substituted 1,2-dihydro-3H-pyrazolo[3,4-D]pyrimidin-3-ones” (Recurium IP Holdings, LLC, priority 2018, dated 2022):
Like-named read-outs stand apart in the source and are kept apart here.

Experiments:
H23 cells = assay: H23 Cellular Proliferation Assay (CellTiter-Glo); type: cell-based; conditions: Homo sapiens, NCI-H23, 96 h, 4 days, read-out: H23 CTG IC50
Method: H23 Cellular Proliferation Assay
Cells were treated with compounds diluted in DMSO and a 9 point 5-fold serial dilutions. Plates were placed in 37° C., 5% CO2 for to incubate for 4 days. Before they were developed by adding 100 μL of CellTiter-Glo reagent (Promega) to the assay plate, plates were shaken briefly for 2 mins and allowed to incubate at rt for 10 mins. The plates are read with a M5e plate reader according to CellTiter-Glo protocol. The GraphPad Prism software is used to get IC50 values.

Wee1 kinase = Wee1 kinase (Homo sapiens, UniProt P30291); assay: Wee1 Binding Assay (FRET)
Wee1 kinase, sequence (P30291 whole entry): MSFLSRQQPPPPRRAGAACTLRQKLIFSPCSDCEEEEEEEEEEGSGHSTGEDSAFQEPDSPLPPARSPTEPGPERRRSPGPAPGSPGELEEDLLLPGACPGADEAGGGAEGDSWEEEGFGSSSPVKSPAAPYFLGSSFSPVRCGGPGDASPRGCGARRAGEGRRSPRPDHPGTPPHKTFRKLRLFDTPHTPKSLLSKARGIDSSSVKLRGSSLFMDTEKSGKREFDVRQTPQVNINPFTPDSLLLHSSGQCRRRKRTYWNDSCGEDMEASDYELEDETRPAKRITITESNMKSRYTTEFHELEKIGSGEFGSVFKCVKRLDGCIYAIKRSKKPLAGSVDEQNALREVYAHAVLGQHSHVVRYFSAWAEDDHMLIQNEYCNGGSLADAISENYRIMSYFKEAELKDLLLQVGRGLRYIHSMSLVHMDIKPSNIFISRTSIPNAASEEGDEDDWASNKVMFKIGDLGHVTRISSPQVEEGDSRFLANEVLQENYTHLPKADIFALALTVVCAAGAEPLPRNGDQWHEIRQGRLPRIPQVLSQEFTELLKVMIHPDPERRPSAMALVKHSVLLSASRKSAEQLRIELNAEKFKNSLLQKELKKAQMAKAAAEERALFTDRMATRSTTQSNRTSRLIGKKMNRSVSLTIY
Method: Wee 1 kinase was determined by using Fluorescence Resonance Energy Transfer (FRET) assay. […] The plate was shaken for 30 seconds, incubated for 60 min at RT, and recorded on fluorescence plate reader.

[1] = FRET, Wee1 kinase 2 nM, tracer 178 50 nM, 60 min at RT, read-out: Wee1 enzymatic IC50

| Structure (SMILES) | IC50 (H23 cells) [nM] | IC50 (Wee1 kinase) [nM] | IC50 (Wee1 kinase; [1]) [nM] |
| --- | --- | --- | --- |
| C=CCn1c(=O)c2cnc(Nc3ccc(N4CCN(C)CC4)cc3)nc2n1-c1ccc2c(n1)[C@@H](O)CC2 (single isomer, unassigned) [Example 1A] | > 1000 | < 10 | – |
| C=CCn1c(=O)c2cnc(Nc3ccc(N4CCN(C)CC4)cc3)nc2n1-c1ccc2c(n1)[C@H](O)CC2 (single isomer, unassigned) [Example 1B] | – | < 10 | – |
| C=CCn1c(=O)c2cnc(Nc3ccc(N4CCN(C)CC4)cc3)nc2n1-c1ccc2c(n1)[C@@](C)(O)CC2 (single isomer, unassigned) [Example 2A] | > 1000 | < 10 | – |
| C=CCn1c(=O)c2cnc(Nc3ccc(N4CCN(C)CC4)cc3)nc2n1-c1ccc2c(n1)[C@](C)(O)CC2 (single isomer, unassigned) [Example 2B] | 100 to 1000 | < 10 | – |
| C=CCn1c(=O)c2cnc(Nc3ccc(N4CCN(C)CC4)cc3)nc2n1-c1ccc2c(n1)[C@](O)(C(F)(F)F)CC2 (single isomer, unassigned) [Example 3A] | > 1000 | < 10 | – |
| C=CCn1c(=O)c2cnc(Nc3ccc(N4CCN(C)CC4)cc3)nc2n1-c1ccc2c(n1)[C@@](O)(C(F)(F)F)CC2 (single isomer, unassigned) [Example 3B] | 100 to 1000 | < 10 | – |
| C=CCn1c(=O)c2cnc(Nc3ccc(N4CCN(C)CC4)cc3)nc2n1-c1ccc2c(n1)[C@@](C)(O)CO2 (single isomer, unassigned) [Example 4A] | > 1000 | < 10 | – |
| C=CCn1c(=O)c2cnc(Nc3ccc(N4CCN(C)CC4)cc3)nc2n1-c1ccc2c(n1)[C@](C)(O)CO2 (single isomer, unassigned) [Example 4B] | > 1000 | < 10 | – |
| C=CCn1c(=O)c2cnc(Nc3ccc(N4CCN(C)CC4)cc3)nc2n1-c1ccc2c(n1)[C@](O)(CC)CC2 (single isomer, unassigned) [Example 9A] | 100 to 1000 | < 10 | – |
| C=CCn1c(=O)c2cnc(Nc3ccc(N4CCN(C)CC4)cc3)nc2n1-c1ccc2c(n1)[C@@](O)(CC)CC2 (single isomer, unassigned) [Example 9B] | 100 to 1000 | < 10 | – |
| C=CCn1c(=O)c2cnc(Nc3ccc(N4CCN(C)CC4)c(C)c3)nc2n1-c1ccc2c(n1)[C@@](C)(O)CC2 (single isomer, unassigned) [Example 10A] | 100 to 1000 | < 10 | – |
| C=CCn1c(=O)c2cnc(Nc3ccc(N4CCN(C)CC4)c(C)c3)nc2n1-c1ccc2c(n1)[C@](C)(O)CC2 (single isomer, unassigned) [Example 10B] | 100 to 1000 | < 10 | – |
| C=CCn1c(=O)c2cnc(Nc3ccc(N4CCN(C)CC4)c(F)c3)nc2n1-c1ccc2c(n1)[C@@](C)(O)CC2 (single isomer, unassigned) [Example 11A] | > 1000 | – | < 10 |
| C=CCn1c(=O)c2cnc(Nc3ccc(N4CCN(C)CC4)c(F)c3)nc2n1-c1ccc2c(n1)[C@](C)(O)CC2 (single isomer, unassigned) [Example 11B] | 100 to 1000 | – | < 10 |
| C=CCn1c(=O)c2cnc(Nc3ccc(N4CCN(C)CC4)c(C)c3)nc2n1-c1ccc2c(n1)[C@](O)(CC)CC2 (single isomer, unassigned) [Example 12A] | 100 to 1000 | < 10 | – |
| C=CCn1c(=O)c2cnc(Nc3ccc(N4CCN(C)CC4)c(C)c3)nc2n1-c1ccc2c(n1)[C@@](O)(CC)CC2 (single isomer, unassigned) [Example 12B] | < 100 | < 10 | – |

| Structure (SMILES) | IC50 (H23 cells) [nM] | IC50 (Wee1 kinase) [nM] | IC50 (Wee1 kinase; [1]) [nM] |
| --- | --- | --- | --- |
| C=CCn1c(=O)c2cnc(Nc3ccc(N4CCN(C)CC4)cc3)nc2n1-c1ccc2c(n1)[C@](O)(C(F)F)CC2 (single isomer, unassigned) [Example 15A] | > 1000 | < 10 | – |
| C=CCn1c(=O)c2cnc(Nc3ccc(N4CCN(C)CC4)cc3)nc2n1-c1ccc2c(n1)[C@@](O)(C(F)F)CC2 (single isomer, unassigned) [Example 15B] | 100 to 1000 | < 10 | – |
| C=CCn1c(=O)c2cnc(Nc3ccc(N4CCN(C)CC4)cc3)nc2n1-c1ccc2c(n1)[C@@](O)(C1CC1)CC2 (single isomer, unassigned) [Example 16B] | 100 to 1000 | < 10 | – |
| C=CCn1c(=O)c2cnc(Nc3ccc(N4CCN(C)CC4)cc3)nc2n1-c1ccc2c(c1)[C@@](C)(O)CC2 (single isomer, unassigned) [Example 21A] | > 1000 | < 10 | – |
| C=CCn1c(=O)c2cnc(Nc3ccc(N4CCN(C)CC4)cc3)nc2n1-c1ccc2c(c1)[C@](C)(O)CC2 (single isomer, unassigned) [Example 21B] | 100 to 1000 | < 10 | – |
| C=CCn1c(=O)c2cnc(Nc3ccc(N4CCN(C)CC4)cc3)nc2n1-c1ccc2c(c1)[C@](O)(CC)CC2 (single isomer, unassigned) [Example 22A] | > 1000 | – | 10 to 100 |
| C=CCn1c(=O)c2cnc(Nc3ccc(N4CCN(C)CC4)cc3)nc2n1-c1ccc2c(c1)[C@@](O)(CC)CC2 (single isomer, unassigned) [Example 22B] | 100 to 1000 | – | < 10 |
| C=CCn1c(=O)c2cnc(Nc3ccc(N4CCN(C)CC4)cc3)nc2n1-c1ccc2c(n1)[C@@](C)(O)CCC2 (single isomer, unassigned) [Example 25A] | 100 to 1000 | < 10 | – |
| C=CCn1c(=O)c2cnc(Nc3ccc(N4CCN(C)CC4)cc3)nc2n1-c1ccc2c(n1)[C@](C)(O)CCC2 (single isomer, unassigned) [Example 25B] | 100 to 1000 | < 10 | – |
| C=CCn1c(=O)c2cnc(Nc3ccc(N4CCN(C)CC4)cc3)nc2n1-c1ccc2c(n1)[C@](O)(CC)CCC2 (single isomer, unassigned) [Example 26A] | > 1000 | < 10 | – |
| C=CCn1c(=O)c2cnc(Nc3ccc(N4CCN(C)CC4)cc3)nc2n1-c1ccc2c(n1)[C@@](O)(CC)CCC2 (single isomer, unassigned) [Example 26B] | < 100 | < 10 | – |
| C=CCn1c(=O)c2cnc(Nc3ccc(N4CCN(C)CC4)c(C)c3)nc2n1-c1ccc2c(n1)[C@@](C)(O)CCC2 (single isomer, unassigned) [Example 27A] | 100 to 1000 | – | < 10 |
| C=CCn1c(=O)c2cnc(Nc3ccc(N4CCN(C)CC4)c(C)c3)nc2n1-c1ccc2c(n1)[C@](C)(O)CCC2 (single isomer, unassigned) [Example 27B] | 100 to 1000 | – | < 10 |
| C=CCn1c(=O)c2cnc(Nc3ccc4c(c3)CNCC43CC3)nc2n1-c1ccc2c(n1)[C@](O)(C(F)(F)F)CC2 (single isomer, unassigned) [Example 30A] | 100 to 1000 | < 10 | – |
| C=CCn1c(=O)c2cnc(Nc3ccc4c(c3)CNCC43CC3)nc2n1-c1ccc2c(n1)[C@@](O)(C(F)(F)F)CC2 (single isomer, unassigned) [Example 30B] | 100 to 1000 | < 10 | – |
| C=CCn1c(=O)c2cnc(Nc3ccc(N4CCN(C)CC4)cc3)nc2n1-c1ccc2c(n1)C(=O)NC2 [Example 34, 2-allyl-6-((4-(4-methylpiperazin-1-yl)phenyl)amino)-1-(7-oxo-6,7-dihydro-5H-pyrrolo[3,4-b]pyridin-2-yl)-1,2-dihydro-3H-pyrazolo[3,4-d]pyrimidin-3-one] | – | – | < 10 |
